Numbering of substitutions follows the chain as printed. pIC50: −log10 of the molar value.
Assays:
Type in all cases: cell-based
LNCaP FGC cells = assay: Inhibition of proliferation of LNCaP cells (WST-8); conditions: Homo sapiens, LNCaP, 96 h, LNCaP FGC cells, 96 hours, WST-8 absorbance at 450 nm; read-out: IC50 for inhibiting the proliferation of LNCaP cells
Procedure: The cells were cultured in a cell culture incubator with 5% CO2 at 37° C. overnight. […] On the sixth day, 96 well plates were taken out, and 20 μL of WST-8 (Beytime, C0040) reagent was added to each well.

AR protein [1] = target: T1, AR protein (Homo sapiens, UniProt P10275); assay: Degradation of AR protein in VCaP cells (Western blot); conditions: 8 hours; for inhibition at 0.01 µM: compound at 10 nM, read-out: Degradation rate of the AR protein in VCaP cells, 10 nM (%); for inhibition at 0.1 µM: compound at 100 nM, read-out: Degradation rate of the AR protein in VCaP cells, 100 nM (%)
T1 construct: degradation activity of the compounds disclosed in the present disclosure on AR protein in VCaP cells; host or cells: VCaP
T1 sequence (P10275 1-920): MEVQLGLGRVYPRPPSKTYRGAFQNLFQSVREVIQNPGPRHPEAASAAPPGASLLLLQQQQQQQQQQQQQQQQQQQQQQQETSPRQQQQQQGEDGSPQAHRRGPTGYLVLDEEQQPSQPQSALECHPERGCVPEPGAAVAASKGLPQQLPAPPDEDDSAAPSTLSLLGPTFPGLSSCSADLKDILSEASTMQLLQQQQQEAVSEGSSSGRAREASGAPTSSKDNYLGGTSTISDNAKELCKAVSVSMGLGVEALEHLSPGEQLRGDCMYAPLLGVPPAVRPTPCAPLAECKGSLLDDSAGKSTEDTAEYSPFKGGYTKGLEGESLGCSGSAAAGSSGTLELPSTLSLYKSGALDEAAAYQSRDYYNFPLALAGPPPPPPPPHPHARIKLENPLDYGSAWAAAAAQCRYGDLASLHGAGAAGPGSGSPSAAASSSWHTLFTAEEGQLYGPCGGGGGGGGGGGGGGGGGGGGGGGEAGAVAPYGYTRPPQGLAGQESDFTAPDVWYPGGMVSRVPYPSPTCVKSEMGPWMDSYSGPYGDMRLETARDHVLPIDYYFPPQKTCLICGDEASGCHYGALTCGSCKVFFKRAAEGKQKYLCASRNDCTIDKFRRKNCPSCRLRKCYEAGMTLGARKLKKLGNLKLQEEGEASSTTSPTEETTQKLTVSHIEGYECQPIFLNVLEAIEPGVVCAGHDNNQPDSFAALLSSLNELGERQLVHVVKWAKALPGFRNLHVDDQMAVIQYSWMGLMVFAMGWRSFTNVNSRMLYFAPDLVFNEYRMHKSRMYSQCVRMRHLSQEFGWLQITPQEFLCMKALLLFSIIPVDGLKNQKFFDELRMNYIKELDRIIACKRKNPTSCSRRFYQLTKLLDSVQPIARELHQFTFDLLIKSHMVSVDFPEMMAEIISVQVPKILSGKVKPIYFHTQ
In short: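 VCaP cells treated with compound alongside solvent controls for 8 h, then lysed in RIPA and protein quantified by BCA. AR detected by SDS-PAGE/Western blot with infrared imaging. Degradation rate calculated from band grayscale, with GAPDH as internal reference.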

VCaP cells = assay: Inhibition of proliferation of VCaP cells (WST-8); conditions: Homo sapiens; VCaP cells, 168 hours, WST-8 absorbance at 450 nm; read-out: IC50 for inhibiting the proliferation of VCaP cells
In short: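 VCaP FGC cells, 15000 per well in DMEM with 10% FBS, were cultured at 37° C, 5% CO2. On day nine, WST-8 reagent was added to read proliferation.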

AR protein [2] = target: T2, AR protein (Homo sapiens, UniProt P10275, T878A); assay: Degradation of AR protein in LNCaP cells (Western blot); conditions: LNCaP cells, 8 hours, Western blot grayscale, GAPDH internal reference; for inhibition at 0.01 µM: compound 10 nM, read-out: Degradation rates of the AR protein in LNCaP cells, 10 nM (%); for inhibition at 0.1 µM: compound 100 nM, read-out: Degradation rates of the AR protein in LNCaP cells, 100 nM (%)
T2 construct: degradation activity of the compounds disclosed in the present disclosure on AR protein in LNCaP cells; host or cells: LNCaP FGC
T2 sequence (P10275 1-920 T878A): T1 sequence (P10275 1-920) with T878A
In short: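 AR assessed by SDS-PAGE/Western blot with infrared imaging; band greyscale normalised to GAPDH gave percent degradation.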

Row | SMILES | pIC50 (LNCaP FGC cells) | inhibition at 0.01 µM (AR protein [1]) [%] | inhibition at 0.1 µM (AR protein [1]) [%] | pIC50 (VCaP cells) | inhibition at 0.01 µM (AR protein [2]) [%] | inhibition at 0.1 µM (AR protein [2]) [%]
1 | N#Cc1ccc(O[C@H]2CC[C@H](NC(=O)c3ccc(N4CCC(F)(CN5CC6(CCc7ccc8c(c7O6)C(=O)N(C6CCC(=O)NC6=O)C8=O)C5)CC4)nn3)CC2)cc1Cl (stereo partly drawn) [Compound 164] | 4.04 | 4 | 8 | 4.93 | 25 | 4
2 | N#Cc1ccc(O[C@H]2CC[C@H](NC(=O)c3ccc(N4CCC5(CC4)CC(F)(F)c4cc6c(cc4O5)C(=O)N(C4CCC(=O)NC4=O)C6=O)nn3)CC2)cc1Cl (stereo partly drawn) [Compound 36] | 5.49 | 17 | 19 | 5.15 | 18 | 22
3 | N#Cc1ccc(O[C@H]2CC[C@H](NC(=O)c3ccc(N4CCC5(CC(N6CCC7(CC6)COc6cc8c(cc6C7)C(=O)N(C6CCC(=O)NC6=O)C8=O)C5)C4)nn3)CC2)cc1Cl (stereo partly drawn) [Compound 63] | 6.30 | 67 | 81 | 6.62 | 0 | 65
4 | COc1cc(O[C@H]2C(C)(C)[C@H](NC(=O)c3ccc(N4CCC(C)(CN5CCC6(CCc7cc8c(cc7O6)C(=O)N(C6CCC(=O)NC6=O)C8)CC5)CC4)cc3)C2(C)C)ccc1C#N (stereo partly drawn) [Compound 267] | 4.36 | 30 | 69 | 8.35 | 30 | 66
5 | N#Cc1ccc(O[C@H]2CC[C@H](NC(=O)c3ccc(N4CCC5(CCC(N6CCC7(CC6)COc6cc8c(cc6C7)C(=O)N(C6CCC(=O)NC6=O)C8=O)CC5)CC4)nn3)CC2)cc1Cl (stereo partly drawn) [Compound 64] | 6.10 | 62 | 73 | 6.80 | 44 | 72
6 | COc1cc(O[C@H]2CC[C@H](NC(=O)c3ccc(N4CC(CN5CCC6(CC5)COc5c6ccc6c5C(=O)N(C5CCC(=O)NC5=O)C6=O)C4)nn3)CC2)ccc1C#N (stereo partly drawn) [Compound 251] | 6.82 | 48 | 73 | 6.57 | 45 | 37
7 | CC1(C)[C@H](NC(=O)c2ccc(N3CCC(CN4CCC5(CC4)COc4c5ccc5c4CN(C4CCC(=O)NC4=O)C5=O)CC3)nn2)C(C)(C)[C@H]1Oc1ccc(C#N)c(Cl)c1 (stereo partly drawn) [Compound 210] | 8.10 | 28 | 71 | 8.70 | 61 | 59
8 | N#Cc1ccc(O[C@H]2CC[C@H](NC(=O)c3ccc(N4CCC5(CC4)CC(N4CCC6(CC4)COc4cc7c(cc4C6)C(=O)N(C4CCC(=O)NC4=O)C7=O)C5)nn3)CC2)cc1Cl (stereo partly drawn) [Compound 71] | 6.30 | 54 | 66 | 6.80 | 37 | 71
9 | COc1cc(O[C@H]2CC[C@H](NC(=O)c3ccc(N4CCC(O)(CN5CCC6(CC5)COc5c6ccc6c5C(=O)N(C5CCC(=O)NC5=O)C6=O)CC4)nn3)CC2)ccc1C#N (stereo partly drawn) [Compound 215] | 6.66 | 63 | 82 | 6.30 | 86 | 91
10 | COc1cc(O[C@H]2C(C)(C)[C@H](NC(=O)c3ccc(N4CCC(CN5CCC6(CCc7cc8c(cc7O6)C(=O)N(C6CCC(=O)NC6=O)C8=O)CC5)CC4)cc3)C2(C)C)ccc1C#N (stereo partly drawn) [Compound 276] | 5.06 | -11 | 59 | 7.46 | 55 | 67
11 | N#Cc1ccc(O[C@H]2CC[C@H](NC(=O)c3ccc(N4CCC5(CC(N6CCC7(CCc8cc9c(cc8O7)C(=O)N(C7CCC(=O)NC7=O)C9=O)CC6)C5)C4)nn3)CC2)cc1Cl (stereo partly drawn) [Compound 35] | 6.10 | 47 | 58 | 6.30 | 17 | 50

Source: patent publication US20260234157A1, “COMPOUND AND METHOD FOR TARGETED DEGRADATION OF ANDROGEN RECEPTOR” (Gan & Lee Pharmaceuticals Co., Ltd., priority 2023, published 2026)
